{"source": "patent US20260216174A1", "about": "“TREATMENT OF ER+ BREAST CANCER COMPRISING HOMOLOGOUS RECOMBINATION DEFICIENCY USING PARG INHIBITOR” (IDEAYA BIOSCIENCES, INC., priority 2023, published 2026)", "key": {"[1]": {"tested_on": "HBCx-34 tumor", "assay": "Patient-derived xenograft (PDX) study with HBCx-34", "format": "in vivo, Athymic Nude-Foxn1^nu mice", "details": "HBCx-34 PDX", "experimental": "Female Athymic Nude-Foxn1^nu mice with an established growing HBCx-34 tumor between 108 and 288 mm^3 were randomized into 4 treatment groups of 10 mice each, according to the groups listed in Table 7A, tumor-bearing mice receive estrogen diluted in drinking water (β-estradiol, 8.5 mg/l), from the date of tumor implant to the end of the study. In Table 7A, the abbreviation “p.o.” refers to oral administration, the abbreviation “QD” refers to administration once a day, and the abbreviation “BID” refers to administration twice a day.\nTumors were measured and mice were weighed twice per week during the experimental period. The tumor volume (mm^3) was estimated using the formula: tumor volume (TV)=a×b2/2, where “a” and “b” were the long and the short diameter of a tumor, respectively. The TVs were used to calculate tumor growth inhibition (TGI, an indicator of antitumor activity) using the formula TGI %: (1−{T/T0/Ct/C0}/1−{C0/Ct})×100 where Tt=median tumor volume of treated at time t, T0=median tumor volume of treated at time 0, Ct=median tumor volume of control at time t and C0=median tumor volume of control at time 0. […] Tumor regression represents tumor volume less than the initial tumor volume on DO.\nFemale Athymic Nude-Foxn1^nu mice with an established growing HBCx-34 tumor between 108 and 288 mm^3 were randomized into 2 treatment groups of 8 mice each, according to the groups listed in Table 8A, tumor-bearing mice receive estrogen diluted in drinking water (β-estradiol, 8.5 mg/l), from the date of tumor implant to the end of the study. In Table 8A, the abbreviation “p.o.” refers to oral administration, the abbreviation “QD” refers to administration once a day.\nTumors were measured and mice were weighed twice per week during the experimental period. The tumor volume (mm^3) was estimated using the formula: tumor volume (TV)=a×b2/2, where “a” and “b” were the long and the short diameter of a tumor, respectively. The TVs were used to calculate tumor growth inhibition (TGI, an indicator of antitumor activity) using the formula TGI %: (1−{T/T0/Ct/C0}/1−{C0/Ct})×100 where Tt=median tumor volume of treated at time t, T0=median tumor volume of treated at time 0, Ct=median tumor volume of control at time t and C0=median tumor volume of control at time 0. […] Tumor regression represents tumor volume less than the initial tumor volume at DO."}, "[2]": {"tested_on": "T-47D", "assay": "Cellular antiproliferative response, Assay 1 (nuclear counts)", "format": "cell-based", "details": "Homo sapiens, T47D, Wild Type, Assay 1, 5 population doublings, read-out: Log10 (IC50) (converted)", "experimental": "(§1) Compound A was tested in a cell line panel. Cell lines were obtained from several different sources such as the American Type Culture Collection, Korean Cell Line Bank and Japanese Collection of Research Bioresources Cell Bank and cultured in the media as recommended by the source cell banks. All cell lines were grown at 37° C. at 5% CO2 and were passaged once or twice weekly with 0.25% Trypsin-EDTA (Fisher Scientific #25200056) and re-plated in 75 cm^2 culture flasks (Corning #3814).\n(§2) The cell lines were plated in 96 well plates (Corning #3904) at density of 1000 cells/well. DMSO dissolved Compound A was then added using the TECAN liquid dispenser to generate a 9-point dose curve with a 3-fold dilution and 10 μM starting, top concentration. After 5 population doublings, the cell lines were treated with 5 μM of Vybrant DyeCycle Green (Life Technologies #V35004), incubated for 60 minutes and imaged using the Incucyte® S3 system to determine the nuclear counts. For all cell lines, the nuclear counts were normalized to the DMSO treated wells and the IC50 was determined using the standard four parametric dose response equation in GraphPad Prism Software."}, "[3]": {"tested_on": "BT-20", "assay": "Cellular antiproliferative response, Assay 1 (nuclear counts)", "format": "cell-based", "details": "Homo sapiens; BT-20, Wild Type, Assay 1, 5 population doublings; read-out: Log10 (IC50) (converted)", "experimental": "as §1, §2"}, "[4]": {"tested_on": "SK-BR-3", "assay": "Cellular antiproliferative response, Assay 1 (nuclear counts)", "format": "cell-based", "details": "Homo sapiens; SK-BR-3, Wild Type, Assay 1, 5 population doublings; read-out: Log10 (IC50) (converted)", "experimental": "as §1, §2"}, "[5]": {"tested_on": "MCF7", "assay": "Cellular antiproliferative response, Assay 1 (nuclear counts)", "format": "cell-based", "details": "Homo sapiens; MCF7, Wild Type, Assay 1, 5 population doublings; read-out: Log10 (IC50) (converted)", "experimental": "as §1, §2"}, "[6]": {"tested_on": "CAMA-1", "assay": "Cellular antiproliferative response, Assay 1 (nuclear counts)", "format": "cell-based", "details": "Homo sapiens; CAMA-1, Wild Type, Assay 1, 5 population doublings; read-out: Log10 (IC50) (converted)", "experimental": "as §1, §2"}, "[7]": {"tested_on": "MDA-MB-231", "assay": "Cellular antiproliferative response, Assay 1 (nuclear counts)", "format": "cell-based", "details": "Homo sapiens; MDA-MB-231, Wild Type, Assay 1, 5 population doublings; read-out: Log10 (IC50) (converted)", "experimental": "as §1, §2"}, "[8]": {"tested_on": "BT-549", "assay": "Cellular antiproliferative response, Assay 1 (nuclear counts)", "format": "cell-based", "details": "Homo sapiens; BT-549, Wild Type, Assay 1, 5 population doublings; read-out: Log10 (IC50) (converted)", "experimental": "as §1, §2"}, "[9]": {"tested_on": "KPL-1", "assay": "Cellular antiproliferative response, Assay 1 (nuclear counts)", "format": "cell-based", "details": "KPL-1, Wild Type, Assay 1, 5 population doublings; read-out: Log10 (IC50) (converted)", "experimental": "as §1, §2"}, "[10]": {"tested_on": "MDA-MB-453", "assay": "Cellular antiproliferative response, Assay 1 (nuclear counts)", "format": "cell-based", "details": "Homo sapiens; MDA-MB-453, Wild Type, Assay 1, 5 population doublings; read-out: Log10 (IC50) (converted)", "experimental": "as §1, §2"}, "[11]": {"tested_on": "Hs 578T", "assay": "Cellular antiproliferative response, Assay 1 (nuclear counts)", "format": "cell-based", "details": "Homo sapiens, Wild Type, Assay 1, 5 population doublings, read-out: Log10 (IC50) (converted)", "experimental": "as §1, §2"}, "[12]": {"tested_on": "MDA-MB-415", "assay": "Cellular antiproliferative response, Assay 1 (nuclear counts)", "format": "cell-based", "details": "Homo sapiens; MDA-MB-415, Wild Type, Assay 1, 5 population doublings; read-out: Log10 (IC50) (converted)", "experimental": "as §1, §2"}}}
{"compound": "CC(C)C(=O)N1CCN(c2cc(S(=O)(=O)NC3(C#N)CC3)cc3c2cnn3-c2nnc(C(F)F)s2)C[C@H]1C", "note": "[Compound B]", "values": [{"measurement": "Regressions (%)", "setting": "[1]; 30 mg/kg QD p.o., Day 35", "value": 10, "unit": "%"}, {"measurement": "TGI (%) D35", "setting": "[1]; 30 mg/kg QD p.o., Day 35", "value": 77, "unit": "%"}, {"measurement": "partial regression (mice)", "setting": "[1]; 30 mg/kg once daily", "value": "1/10"}, {"measurement": "tumor stabilization", "setting": "[1]; 30 mg/kg once daily", "value": "tumor stabilization for all mice"}, {"measurement": "TGI (%) D35", "setting": "[1]; 100 mg/kg BID p.o. (200 mg/kg/day), Day 35", "value": 106, "unit": "%"}, {"measurement": "Regressions (%)", "setting": "[1]; 100 mg/kg BID p.o., Day 35", "value": 80, "unit": "%"}, {"measurement": "Regressions (%)", "setting": "[1]; 100 mg/kg QD p.o., Day 35", "value": 80, "unit": "%"}, {"measurement": "TGI (%) D35", "setting": "[1]; 100 mg/kg QD p.o., Day 35", "value": 103, "unit": "%"}, {"measurement": "partial tumor regression (mice)", "setting": "[1]; 100 mg/kg once daily", "value": "8/10"}, {"measurement": "partial tumor regression (mice)", "setting": "[1]; 100 mg/kg twice daily (200 mg/kg/day)", "value": "8/10"}]}
{"compound": "C[C@H]1CN(c2cc(S(=O)(=O)NC3(C)CC3)cc3c2cnn3-c2nnc(C(F)F)s2)C[C@H](C)N1", "note": "[Compound A, 1-(5-(difluoromethyl)-1,3,4-thiadiazol-2-yl)-4-((3S,5S)-3,5-dimethylpiperazin-1-yl)-N-(1-methylcyclopropyl)-1H-indazole-6-sulfonamide]", "values": [{"measurement": "IC50", "setting": "[2]", "value": 3090, "unit": "nM"}, {"measurement": "IC50", "setting": "[3]", "value": 2410, "unit": "nM"}, {"measurement": "IC50", "setting": "[4]", "value": 131, "unit": "nM"}, {"measurement": "IC50", "setting": "[5]", "value": 2380, "unit": "nM"}, {"measurement": "IC50", "setting": "[6]", "value": 844, "unit": "nM"}, {"measurement": "IC50", "setting": "[7]", "value": 850, "unit": "nM"}, {"measurement": "IC50", "setting": "[8]", "value": 983, "unit": "nM"}, {"measurement": "IC50", "setting": "[9]", "value": 431, "unit": "nM"}, {"measurement": "IC50", "setting": "[10]", "value": 2020, "unit": "nM"}, {"measurement": "IC50", "setting": "[11]", "value": 3000, "unit": "nM"}, {"measurement": "IC50", "setting": "[12]", "value": 2830, "unit": "nM"}, {"measurement": "Regressions (%)", "setting": "[1]; 100 mg/kg QD p.o., Day 45", "value": 100, "unit": "%"}, {"measurement": "TGI (%) D45", "setting": "[1]; 100 mg/kg QD p.o., Day 45", "value": 110, "unit": "%"}, {"measurement": "partial regression (mice)", "setting": "[1]; Compound A study, 100 mg/kg", "value": "all mice achieving partial regression"}]}
